Test results as given in paper PMC3835493, “Acetylshikonin, a Novel AChE Inhibitor, Inhibits Apoptosis via Upregulation of Heme Oxygenase-1 Expression in SH-SY5Y Cells” (Evidence-based Complementary and Alternative Medicine : eCAM, 2013).
pIC50: −log10 of the molar value. Read-outs that look alike come from different tables or passages of the source.

What was measured:
[1] = test system: Bcl-2, Bax, p53, caspase-3 in SH-SY5Y cells; assay: Western blot of apoptosis-related proteins; type: cell-based, human; details: pretreatment 12 h, H2O2 500 μM 1 h
Procedure: (§1) Proteins in the total cell lysate were separated by 10% SDS polyacrylamide gel electrophoresis and electrotransferred to a polyvinylidene difluoride membrane (Immobilon-P membrane; Millipore, Bedford, MA, USA). After the blot was blocked in a solution of 5% bovine serum albumin, membrane was incubated overnight with primary antibodies against Bcl-2, Bax, Caspase-3, p53, HO-1, or beta-actin followed by incubation with horseradish peroxidase-conjugated secondary antibodies for 1 h. Specific bands were detected with ECL-plus western blotting detection reagent (GE Healthcare Bio-Sciences) and photographed with FujiFilm LAS-3000 (Fujifilm, Tokyo, Japan).

HO-1 in PC12 cells = assay: Western blot of HO-1 expression; type: cell-based, rat; details: acetylshikonin 12 h, H2O2 500 μM 1 h
Procedure: as §1

SH-SY5Y cells [2] = assay: Mitochondrial membrane potential (Rhodamine 123); type: cell-based, human; details: pretreatment 12 h, H2O2 500 μM 2 h
Procedure: (§2) The cells were treated with desired concentration of acetylshikonin for 12 hours, and then the cells were stimulated with H2O2 (500 μM) for 2 h. Rhodamine 123 (2 μM) was added to cells after the treatment for 30 min at 37°C. Fluorescence intensity of Rhodamine 123 was measured/detected by a fluorescence spectrophotometer (M1000, TECAN, Austria GmbH, Austria) using excitation/emission of 485/530 nm and a fluorescence microscope (Nikon Live Cell Imaging System Ti-E, Japan) and using excitation/emission of 490/530 nm, respectively. Fluorescence intensity of each group was normalized to the control group.

PC12 cells [3] = assay: Mitochondrial membrane potential (Rhodamine 123); type: cell-based, rat; details: pretreatment 12 h, H2O2 500 μM 2 h
Procedure: as §2

PC12 cells [4] = assay: Intracellular ROS measurement (H2DCF-DA); type: cell-based, rat; details: acetylshikonin 5 and 10 μM 12 h, H2O2 500 μM 2 h
Procedure: (§3) The cells were treated with desired concentration of acetylshikonin for 12 hours, and then the cells were stained with H2DCF-DA (10 μM) for 30 min. After 30 min staining, cells were stimulated with H2O2 (500 μM) for 2 h, and the fluorescence intensity of H2DCF-DA was measured/detected by a fluorescence spectrophotometer (M1000, TECAN, Austria GmbH, Austria) using excitation/emission of 485/530 nm and a fluorescence microscope (Nikon Live Cell Imaging System Ti-E, Japan) using excitation/emission of 490/530 nm, respectively. Fluorescence intensity of each group was normalized to the control group.

HO-1 in SH-SY5Y cells = assay: Western blot of HO-1 expression; type: cell-based, human; details: acetylshikonin 12 h, H2O2 500 μM 1 h
Procedure: as §1

PC12 cells [5] = assay: MTT cell viability, H2O2-induced cell death; type: cell-based, rat
Procedure: (§4) Human neuroblastoma SH-SY5Y cells were from ATCC (Manassas, VA, usa) and maintained in DMEM/F-12 containing 10% FBS and maintained at 37°C with 95% humidified air and 5% CO2. Rat adrenal medulla pheochromocytoma PC12 cells were from ATCC (Manassas, VA, USA) and maintained in DMEM containing 10% FBS at 37°C with 95% humidified air and 5% CO2.
(§5) MTT colorimetric assay was performed to determine the cell viability. Cells were seeded in 96-well plates at a density of 5 × 10^3 cells/well and treated with test chemicals at desired concentration at 37°C for 12 hours. Subsequently, cells were stimulated with H2O2 (500 μM) for 4 hours. After the exposure period, the cells were incubated with 20 μL MTT (5 mg/mL) for 4 h. The cells were eluted with DMSO and quantified with a spectrophotometer (Ultramark Microplate Reader, Bio-Rad) at a wavelength of 590 nm.

SH-SY5Y cells [6] = assay: Nuclear staining with Hoechst 33258 (apoptosis); type: cell-based, human; details: pretreatment 12 h, H2O2 4 h
Procedure: (§6) SH-SY5Y cells and PC12 cells (1 × 10^4 cells/well) in 24-well plates were preincubated with or without test chemicals for 12 hours and subsequently stimulated with H2O2 for the 4 hours. The nuclear morphology of apoptotic cells was measured by Hoechst 33258 nuclear staining according to the manufacturer's instructions. The nuclear morphological change was observed under a fluorescence microscope (Nikon Live Cell Imaging System Ti-E, Japan) using excitation/emission of 360/460 nm.

SH-SY5Y cells [7] = assay: MTT cell viability, H2O2-induced cell death; type: cell-based, human
Procedure: as §4, §5

PC12 cells [8] = assay: Nuclear staining with Hoechst 33258 (apoptosis); type: cell-based, rat; details: pretreatment 12 h, H2O2 4 h
Procedure: as §6

PC12 cells [9] = assay: Cytotoxicity test by MTT without H2O2; type: cell-based, rat; details: 10 μM, 12 h, no H2O2
Procedure: as §5
(§7) Figure 1 Potential AChE inhibitors of natural products attenuated H2O2-induced cell death in both SH-SY5Y and PC12 cells. SH-SY5Y (a) or PC12 (b) cells were cultured with desired concentration of H2O2 for 4 hours; the cell viability was detected by MTT. Data shown are means ± SEM of results from independent experiments in triplicate. *P < 0.05 compared with control cells. SH-SY5Y (c) or PC12 (d) cells were incubated with different potential AChE inhibitors (10 μM) for 12 hours and then stimulated with H2O2 (500 μM) for 4 hours, and the viability was detected by MTT. […] For cytotoxicity test, SH-SY5Y (e) or PC12 (f) cells were incubated with different potential AChE inhibitors (10 μM) for 12 hours, and the viability was detected by MTT. […]

human recombinant AChE = target: T1, human recombinant AChE (Homo sapiens, UniProt P22303); assay: AChE inhibition, Ellman assay; type: biochemical; details: 37°C
T1 construct: made in house
T1 sequence (P22303 32-614): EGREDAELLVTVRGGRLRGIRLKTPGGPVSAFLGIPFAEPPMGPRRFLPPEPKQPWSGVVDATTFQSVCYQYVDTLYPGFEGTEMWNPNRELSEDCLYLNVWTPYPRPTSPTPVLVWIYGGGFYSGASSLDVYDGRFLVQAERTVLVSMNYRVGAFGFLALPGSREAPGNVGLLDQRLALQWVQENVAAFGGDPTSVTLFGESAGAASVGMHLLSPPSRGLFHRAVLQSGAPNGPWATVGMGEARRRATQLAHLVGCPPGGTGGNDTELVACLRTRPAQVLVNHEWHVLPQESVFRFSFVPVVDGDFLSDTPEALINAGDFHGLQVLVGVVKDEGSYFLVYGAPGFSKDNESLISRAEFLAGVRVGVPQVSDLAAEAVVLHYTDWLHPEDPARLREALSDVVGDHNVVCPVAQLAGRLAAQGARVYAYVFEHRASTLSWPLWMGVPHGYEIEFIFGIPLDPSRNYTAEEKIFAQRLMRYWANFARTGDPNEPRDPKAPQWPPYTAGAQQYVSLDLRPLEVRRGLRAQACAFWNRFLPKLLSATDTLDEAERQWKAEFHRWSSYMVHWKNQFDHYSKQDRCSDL
Procedure: Candidate phytochemicals dissolved in DMSO were tested for AChE inhibitory activity by the Ellman assay with minor modifications. Ten μL of human recombinant AChE (prepared in-house) and 1 μL of drug were added into 190 μL of PBS buffer (100 mM, pH 7.4) and incubated in a 96-well plate at 37°C for 10 min. […] After 10 min incubation with the substrate, the optical densities were measured in a 96-well plate reader at 412 nm. The optical density was inversely proportional to the inhibitory activity. By contrast, a blank control without the tested compound was also performed in parallel; the normal hydrolytic rate of the enzyme can be represented by the blank control. Each assay was performed in triplicate.
The percentage inhibitory activities of the various compounds were calculated by comparison with the positive control and the blank control. […] Data analysis was performed with Prism software. Inhibitory effects were expressed as IC50 value calculated by regression analysis.

SH-SY5Y cells [10] = assay: Intracellular ROS measurement (H2DCF-DA); type: cell-based, human; details: acetylshikonin 5 and 10 μM 12 h, H2O2 500 μM 2 h
Procedure: as §3

[11] = test system: Bcl-2, Bax, p53, caspase-3 in PC12 cells; assay: Western blot of apoptosis-related proteins; type: cell-based, rat; details: pretreatment 12 h, H2O2 500 μM 1 h
Procedure: as §1

SH-SY5Y cells [12] = assay: Cytotoxicity test by MTT without H2O2; type: cell-based, human; details: 10 μM, 12 h, no H2O2
Procedure: as §5, §7

[13] = acetylshikonin 1–10 μM 12 h, then H2O2 500 μM 4 h
[14] = test chemical 10 μM 12 h, then H2O2 500 μM 4 h
[15] = IC50, human recombinant AChE, pH 7.4
[16] = human recombinant AChE, pH 7.4, read-out: IC50
[17] = ZnPP 10 μM 2 h, acetylshikonin 12 h, H2O2 500 μM 4 h, MTT

CC(=O)O[C@H](CC=C(C)C)C1=CC(=O)c2c(O)ccc(O)c2C1=O [Acetylshikonin]
Bax and p53 expression [1]: decreased
Bcl-2 expression [1]: increased expression
H2O2-induced decreased caspase-3 and increased cleaved caspase-3 [1]: rescued by acetylshikonin in a dose-dependent manner
HO-1 expression (HO-1 in PC12 cells): no impact
H2O2-induced mitochondrial membrane potential loss (SH-SY5Y cells [2]): rescued by acetylshikonin in a dose-dependent manner
H2O2-induced mitochondrial membrane potential loss (PC12 cells [3]): rescued by acetylshikonin in a dose-dependent manner
H2O2-induced ROS generation (PC12 cells [4]): statistically declined
HO-1 expression (HO-1 in SH-SY5Y cells): increased
H2O2-induced cell death and morphology change, dose dependence (PC12 cells [5]; [13]): dose dependently attenuated
H2O2-induced cell death (cell viability, MTT) (PC12 cells [5]; [14]): highest viability
H2O2-induced cell shrinkage and nuclear condensation (Hoechst 33258) (SH-SY5Y cells [6]): dramatically ameliorated
H2O2-induced cell death and morphology change, dose dependence (SH-SY5Y cells [7]; [13]): dose dependently attenuated
H2O2-induced cell death (cell viability, MTT) (SH-SY5Y cells [7]; [14]): highest viability
H2O2-induced cell shrinkage and nuclear condensation (Hoechst 33258) (PC12 cells [8]): dramatically ameliorated
Cytotoxicity in MTT assay (PC12 cells [9]): not observed
pIC50 (human recombinant AChE; [15]): 4.46
H2O2-induced ROS generation (SH-SY5Y cells [10]): statistically declined
Bax and p53 expression [11]: decreased
Bcl-2 expression [11]: increased expression
H2O2-induced decreased caspase-3 and increased cleaved caspase-3 [11]: rescued by acetylshikonin in a dose-dependent manner
Cytotoxicity in MTT assay (SH-SY5Y cells [12]): not observed

CC(C)=CCc1c2occc2c(O)c2ccc(=O)oc12 [Alloisoimperatorin]
pIC50 (human recombinant AChE; [16]): 4.68

O=C1c2cccc(O)c2C(=O)c2c(O)cc(CO)cc21 [Aloe-emodin]
pIC50 (human recombinant AChE; [15]): 4.57

Cc1cc(O)c2c(c1)C(=O)c1cccc(O)c1C2=O [Chrysophanol]
pIC50 (human recombinant AChE; [15]): 4.12

Cc1cc(O)c2c(c1)C(=O)c1cc(O)cc(O)c1C2=O [Emodin]
pIC50 (human recombinant AChE; [15]): 4.66

CC(C)=CCOc1c2occc2cc2ccc(=O)oc12 [Imperatorin]
IC50 (human recombinant AChE; human recombinant AChE, pH 7.4): Undetected

CC(C)=CCC(OC(=O)CC(C)C)C1=CC(=O)c2c(O)ccc(O)c2C1=O (stereo not shown) [Isovalerylshikonin]
pIC50 (human recombinant AChE; [16]): 4.08

COc1c2ccoc2c(OCC=C(C)C)c2oc(=O)ccc12 [Phellopterin]
pIC50 (human recombinant AChE; [16]): 3.75

O=C(O)c1cc(O)c2c(c1)C(=O)c1cccc(O)c1C2=O [Rhein]
pIC50 (human recombinant AChE; [15]): 3.63

CC(C)=CC[C@@H](O)C1=CC(=O)c2c(O)ccc(O)c2C1=O [Shikonin]
pIC50 (human recombinant AChE; [15]): 4.14

COc1c2occc2cc2ccc(=O)oc12 [Xanthotoxin]
pIC50 (human recombinant AChE; human recombinant AChE, pH 7.4): 3.88

C=CC1=C(C)c2cc3[n-]c(cc4[n-]c(cc5nc(cc1n2)C(C)=C5C=C)c(C)c4CCC(=O)O)c(CCC(=O)O)c3C.[Zn+2] [ZnPP, zinc protoporphyrin IX, reference compound]
Effect of ZnPP on protective effects of acetylshikonin on H2O2-induced cell death (PC12 cells [5]; [17]): not observed
Effect of ZnPP on protective effects of acetylshikonin on H2O2-induced cell death (SH-SY5Y cells [7]; [17]): reversed the protective effects

CC(C)=CCC(OC(=O)C=C(C)C)C1=CC(=O)c2c(O)ccc(O)c2C1=O (stereo not drawn) [β,β-Dimethylacrylshikonin]
pIC50 (human recombinant AChE; human recombinant AChE, pH 7.4): 4.20
